Laboratory results from paper PMC6225228, “Design, Synthesis and Evaluation of N-pyrazinylbenzamides as Potential Antimycobacterial Agents” (Molecules : A Journal of Synthetic Chemistry and Natural …, 2018).
Converted amounts (≈) assume the structure as drawn. Where two headings read alike, the source gives them in different places.

Key:
[1] = tested on: Mycobacterium tuberculosis H37Rv CNCTC My 331/88 (ATCC 27294); test: Antimycobacterial microdilution MABA, M. tuberculosis; assay type: cell-based; conditions: for Mtb H37Rv ATCC 27294 MIC: Middlebrook 7H9 with OADC growth supplement, pH = 6.6, MABA; for MIC: Mycobacterium tuberculosis, read-out: Mtb H37Rv ATCC 27294 MIC, Middlebrook 7H9 with OADC growth supplement, pH = 6.6, MABA
[2] = tested on: M. kansasii CNCTC My 235/80 (ATCC 12478); test: Antimycobacterial microdilution MABA, M. kansasii; assay type: cell-based, Mycobacterium kansasii; conditions: for MIC: Mycobacterium kansasii, ATCC12478, pH 6.6, read-out: M. kans. ATCC 12478 MIC, Middlebrook 7H9 with OADC, pH 6.6, MABA; for M. kans. ATCC 12478 MIC: Middlebrook 7H9 with OADC, pH 6.6, MABA
[3] = tested on: M. avium ssp. avium CNCTC My 80/72 (ATCC 15769); test: Antimycobacterial microdilution MABA, M. avium; assay type: cell-based, Mycobacterium avium; conditions: for M. avium ATCC 15769 MIC: Middlebrook 7H9 with OADC, pH 6.6, MABA; for MIC: Mycobacterium avium, ATCC15769, pH 6.6, read-out: M. avium ATCC 15769 MIC
[4] = tested on: Mycobacterium smegmatis CCM 4622 (ATCC 607); test: Antimycobacterial microdilution, M. smegmatis; assay type: cell-based; conditions: Mycolicibacterium smegmatis, read-out: M. smeg. ATCC 607 MIC
[5] = tested on: Staphylococcus aureus CCM 4516/08; test: Antibacterial microdilution broth, SA; assay type: cell-based; conditions: Staphylococcus aureus
[6] = tested on: Staphylococcus aureus H 5996/08 methicillin resistant; test: microbe, parasite or virus in culture; assay type: cell-based; conditions: Staphylococcus aureus, MRSA, read-out: MIC MRSA
[7] = tested on: Staphylococcus epidermidis H 6966/08; test: Antibacterial microdilution broth, SE; assay type: cell-based; conditions: Staphylococcus epidermidis, read-out: MIC SE
[8] = tested on: Enterococcus sp. J 14365/08; test: Antibacterial microdilution broth, EF; assay type: cell-based; conditions: Enterococcus, read-out: MIC EF
[9] = tested on: Escherichia coli CCM 4517; test: Antibacterial microdilution broth, EC; assay type: cell-based; conditions: Escherichia coli, read-out: MIC EC
[10] = tested on: Pseudomonas aeruginosa CCM 1961; test: Antibacterial microdilution broth, PA; assay type: cell-based; conditions: Pseudomonas aeruginosa, read-out: MIC PA
[11] = tested on: Candida albicans ATCC 44859; test: Antifungal microdilution broth, CA; assay type: cell-based; conditions: Candida albicans, read-out: MIC CA
[12] = tested on: Candida tropicalis 156; test: Antifungal microdilution broth, CT; assay type: cell-based; conditions: read-out: MIC CT
[13] = tested on: Candida krusei E28; test: Antifungal microdilution broth, CK; assay type: cell-based; conditions: Pichia kudriavzevii, read-out: MIC CK
[14] = tested on: Candida glabrata 20/I; test: Antifungal microdilution broth, CG; assay type: cell-based; conditions: Nakaseomyces glabratus, 20/I, read-out: MIC CG
[15] = tested on: Trichosporon asahii 1188; test: Antifungal microdilution broth, TA; assay type: cell-based; conditions: read-out: MIC TA
[16] = tested on: Aspergillus fumigatus 231; test: Antifungal microdilution broth, AF; assay type: cell-based; conditions: read-out: MIC AF
[17] = tested on: Lichtheimia corymbifera 272; test: Antifungal microdilution broth, LC; assay type: cell-based; conditions: read-out: MIC LC
[18] = tested on: Trichophyton interdigitale 445; test: Antifungal microdilution broth, TI; assay type: cell-based; conditions: read-out: MIC TI
[19] = CCM4516, 24 h, read-out: MIC SA, 24 h
[20] = CCM4516, 48 h, read-out: MIC SA, 48 h
[21] = Trichosporon asahii, 1188, 24 h
[22] = Trichosporon asahii, 1188, 48 h
[23] = Aspergillus fumigatus, 231, 24 h
[24] = Aspergillus fumigatus, 231, 48 h
[25] = Lichtheimia corymbifera, 272, 24 h
[26] = Lichtheimia corymbifera, 272, 48 h
[27] = Trichophyton interdigitale, 445, 72 h
[28] = Trichophyton interdigitale, 445, 120 h

Row | Compound | MIC [1] | MIC [2] | MIC [3] | MIC [4] | MIC [5, 19] | MIC [5, 20] | MIC ([6]; 24 h) | MIC ([6]; 48 h) | MIC ([7]; H6966/08, 24 h) | MIC ([7]; H6966/08, 48 h) | MIC ([8]; SP.J14365/08, 24 h) | MIC ([8]; SP.J14365/08, 48 h) | MIC ([9]; CCM4517, 24 h) | MIC ([9]; CCM4517, 48 h) | MIC ([10]; CCM1961, 72 h) | MIC ([10]; CCM1961, 120 h) | MIC ([11]; ATCC44859, 24 h) | MIC ([11]; ATCC44859, 48 h) | MIC ([12]; Candida tropicalis, 156, 24 h) | MIC ([12]; Candida tropicalis, 156, 48 h) | also measured
1 | COc1ccccc1C(=O)Nc1cnccn1 [Compound 1e] | > 100 µg/mL | 100 µg/mL (≈ 436 µM) | > 100 µg/mL | 125 µg/mL (≈ 545 µM) | > 500 µM | > 500 µM | > 500 µM | > 500 µM | > 500 µM | > 500 µM | > 500 µM | > 500 µM | > 500 µM | > 500 µM | > 500 µM | > 500 µM | > 500 µM | > 500 µM | > 500 µM | > 500 µM | Mtb H37Rv ATCC 27294 MIC [1]: >100 µg/mL; M. avium ATCC 15769 MIC [3]: >100 µg/mL; MIC ([13]; E28, 24 h): > 500 µM; MIC ([13]; E28, 48 h): > 500 µM; MIC ([14]; 24 h): > 500 µM; MIC ([14]; 48 h): > 500 µM; MIC [15, 21]: > 500 µM; MIC [15, 22]: > 500 µM; MIC [16, 23]: > 500 µM; MIC [16, 24]: > 500 µM; MIC [17, 25]: > 500 µM; MIC [17, 26]: > 500 µM; MIC [18, 27]: > 500 µM; MIC [18, 28]: > 500 µM; melting point: 100.3 to 102.4 °C
2 | COc1ccc(C(=O)Nc2cnccn2)cc1 [Compound 1g] | 25 µg/mL (≈ 109 µM) | > 100 µg/mL | > 100 µg/mL | ≥ 500 µg/mL | > 500 µM | > 500 µM | > 500 µM | > 500 µM | > 500 µM | > 500 µM | > 500 µM | > 500 µM | > 500 µM | > 500 µM | > 500 µM | > 500 µM | > 500 µM | > 500 µM | > 500 µM | > 500 µM | M. kans. ATCC 12478 MIC [2]: >100 µg/mL; M. avium ATCC 15769 MIC [3]: >100 µg/mL; MIC ([13]; E28, 24 h): > 500 µM; MIC ([13]; E28, 48 h): > 500 µM; MIC ([14]; 24 h): > 500 µM; MIC ([14]; 48 h): > 500 µM; MIC [15, 21]: > 500 µM; MIC [15, 22]: > 500 µM; MIC [16, 23]: > 500 µM; MIC [16, 24]: > 500 µM; MIC [17, 25]: > 500 µM; MIC [17, 26]: > 500 µM; MIC [18, 27]: > 500 µM; MIC [18, 28]: > 500 µM; melting point: 156 to 156.6 °C
3 | COc1ccccc1C(=O)Nc1cncc(Cl)n1 [Compound 3e] | > 100 µg/mL | > 100 µg/mL | > 100 µg/mL | ≥ 500 µg/mL | > 500 µM | > 500 µM | > 500 µM | > 500 µM | > 500 µM | > 500 µM | > 500 µM | > 500 µM | > 500 µM | > 500 µM | > 500 µM | > 500 µM | > 500 µM | > 500 µM | > 500 µM | > 500 µM | Mtb H37Rv ATCC 27294 MIC [1]: >100 µg/mL; MIC ([13]; E28, 24 h): > 500 µM; MIC ([13]; E28, 48 h): > 500 µM; MIC ([14]; 24 h): > 500 µM; MIC ([14]; 48 h): > 500 µM; MIC [15, 21]: > 500 µM; MIC [15, 22]: > 500 µM; MIC [16, 23]: > 500 µM; MIC [16, 24]: > 500 µM; MIC [17, 25]: > 500 µM; MIC [17, 26]: > 500 µM; MIC [18, 27]: > 500 µM; MIC [18, 28]: > 500 µM; melting point: 149.1 to 150.7 °C
4 | O=C(Nc1cnccn1)c1ccccc1 [Compound 1a] | 100 µg/mL (≈ 502 µM) | > 100 µg/mL | > 100 µg/mL | ≥ 500 µg/mL | > 500 µM | > 500 µM | > 500 µM | > 500 µM | > 500 µM | > 500 µM | > 500 µM | > 500 µM | > 500 µM | > 500 µM | > 500 µM | > 500 µM | 500 µM (≈ 99.6 µg/mL) | > 500 µM | > 500 µM | > 500 µM | M. kans. ATCC 12478 MIC [2]: >100 µg/mL; M. avium ATCC 15769 MIC [3]: >100 µg/mL; MIC ([13]; E28, 24 h): > 500 µM; MIC ([13]; E28, 48 h): > 500 µM; MIC ([14]; 24 h): > 500 µM; MIC ([14]; 48 h): > 500 µM; MIC [15, 21]: > 500 µM; MIC [15, 22]: > 500 µM; MIC [16, 23]: > 500 µM; MIC [16, 24]: > 500 µM; MIC [17, 25]: > 500 µM; MIC [17, 26]: > 500 µM; MIC [18, 27]: > 500 µM; MIC [18, 28]: > 500 µM; melting point: 171.2 to 172 °C
